For the assay, the system named is EGFR. In words: Western blot of EGFR (phosphorylated and total) in Panc-1 cells. It is filed as cell-based, human. The arrangement: dose or concentration left out as unconfirmed. The settings on record: Panc-1, compared with CC. The method, then:
FIG. 4B illustrates effect of purified crocetin (PC) and crude crocetin (CC) on EGFR (epidermal growth factor receptor), Akt signaling and Bax/Bcl-2 on Panc-1 cells.
The immuno-Western blot analyses were the same as described earlier by Banerjee et al. (Reference 26). Briefly, MIA-PaCa-2 and BxPC-3 cells following treatment with or without crocetin and tumor samples were homogenized. Then, both cell and tumor lysates were spun at 18000 g for 1 hr at 4° C., and the supernatants were collected for immunodetection. Protein concentration was measured by using the Comassie blue reagent assay (Pierce, Rockford, Ill.). Equal amount of protein were resolved in 10% SDS-PAGE, transferred onto nitrocellulose membranes. Membranes were blocked with super block (Pierce, Rockford, Ill.) followed by incubation with appropriate primary antibodies at 4° C., overnight. The antigen-antibody reactions were detected with HRP-conjugated anti-rabbit or anti-mouse IgG for one hour in room temperature. Immunoreactions were visualized by the ECL ([…]) chemiluminescence reagent kit (Pierce, Rockford, Ill.) and relative expression of proteins were calculated by densitometric analyses using ID image Analysis Software version 3.6 (Eastman Kodak Company, Rochester, N.Y.).
(In general: In western blotting, separated proteins are transferred to a membrane and probed.)

SMILES strings stand for the structures.

Take `CC(C=CC=C(C)C(=O)O)=CC=CC=C(C)C=CC=C(C)C(=O)O` [crocetinic acid]: the EGFR phosphorylation entry is on record as “significantly inhibited”.

The values are drawn from patent US9889105B2, “In vivo method for treating, inhibiting, and/or prophylaxis of cancer, such as pancreatic cancer” (U.S. Department of Veterans Affairs, priority 2010, dated 2018).
